Data taken from patent publication EP0428132A1, “Pradimicin derivatives” (Bristol-Myers Squibb Company, priority 1989, dated 1991).
Converted amounts (≈) assume the structure as drawn.

Key:
[1] = system: Microsporum canis WW10218; assay: In vitro antifungal activity, serial agar dilution method (Table 1a); assay type: cell-based; details: WW10218, pH 7, read-out: MICs, Microsporum canis WW10218
Protocol: (§1) The inoculum size was adjusted to 10⁶ cells/ml, and a volume of approximately 0.003 ml of fungal suspension was applied to the surface of the antibiotic containing agar plates with a multiinoculator. After incubation, the lowest concentration of antibiotic causing virtually complete inhibition of fungal growth was determined as the minimum inhibitory concentration (MIC).

[2] = system: Candida tropicalis A25809; assay: as above; assay type: cell-based; details: YM agar (pH 7.0, Difco), 30°C for 2 days (yeast) or 4 days (filamentous fungi), read-out: MICs, Candida tropicalis A25809
Protocol: as §1

[3] = system: Saccharomyces cerevisiae A25803; assay: as above; assay type: cell-based; details: YM agar (pH 7.0, Difco), 30°C for 2 days (yeast) or 4 days (filamentous fungi), read-out: MICs, Saccharomyces cerevisiae A25803
Protocol: as §1

[4] = system: Cryptococcus neoformans A15053; assay: as above; assay type: cell-based; details: A15053, YM agar (pH 7.0, Difco), 30°C for 2 days (yeast) or 4 days (filamentous fungi), read-out: MICs, Cryptococcus neoformans A15053
Protocol: as §1

[5] = system: Candida pseudotropicalis A25802; assay: as above; assay type: cell-based; details: Kluyveromyces marxianus, YM agar (pH 7.0, Difco), 30°C for 2 days (yeast) or 4 days (filamentous fungi), read-out: MICs, Candida pseudotropicalis A25802
Protocol: as §1

[6] = system: Trichophyton rubrum A26761; assay: as above; assay type: cell-based; details: A26761, pH 7, read-out: MICs, Trichophyton rubrum A26761
Protocol: as §1

[7] = system: Candida albicans A9540; assay: as above; assay type: cell-based; details: A9540, YM agar (pH 7.0, Difco), 30°C for 2 days (yeast) or 4 days (filamentous fungi), read-out: MICs, Candida albicans A9540
Protocol: as §1

[8] = system: Trichophyton mentagrophytes A26771; assay: as above; assay type: cell-based; details: A26771, YM agar (pH 7.0, Difco), 30°C for 2 days (yeast) or 4 days (filamentous fungi), read-out: MICs, Trichophyton mentagrophytes A26771
Protocol: as §1

[9] = system: Candida albicans A25578; assay: as above; assay type: cell-based; details: A25578, YM agar (pH 7.0, Difco), 30°C for 2 days (yeast) or 4 days (filamentous fungi), read-out: MICs, Candida albicans A25578
Protocol: as §1

[10] = system: Microsporum gypseum WW1107; assay: as above; assay type: cell-based; details: Nannizzia gypsea, YM agar (pH 7.0, Difco), 30°C for 2 days (yeast) or 4 days (filamentous fungi), read-out: MICs, Microsporum gypseum WW1107
Protocol: as §1

[11] = system: Candida paratropicalis A25825; assay: as above; assay type: cell-based; details: YM agar (pH 7.0, Difco); 30°C for 2 days (yeast) or 4 days (filamentous fungi); read-out: MICs, Candida paratropicalis A25825
Protocol: as §1

[12] = system: Candida tropicalis A25812; assay: as above; assay type: cell-based; details: A25812, YM agar (pH 7.0, Difco), 30°C for 2 days (yeast) or 4 days (filamentous fungi), read-out: MICs, Candida tropicalis A25812
Protocol: as §1

[13] = Water solubility, protocol I (PBS, HPLC); assay type: physicochemical; details: Method I: PBS without CaCl₂ and MgCl₂.6H₂O
Protocol: The supernatant (2 µL) was analyzed by HPLC using the conditions specified for each compound in the Experimental Section. […] When not soluble, an additional amount of PBS (x µL) was added, sonicated, and centrifuged. When visibly soluble, the solution (2 µL) was injected to HPLC and the peak area was used for the known concentration of the sample.

| Structure (SMILES) | MIC [1] [µg/mL] | MIC [2] [µg/mL] | MIC [3] [µg/mL] | MIC [4] [µg/mL] | MIC [5] [µg/mL] | MIC [6] [µg/mL] | MIC [7] [µg/mL] | MIC [8] [µg/mL] | MIC [9] [µg/mL] | MIC [10] [µg/mL] | MIC [11] [µg/mL] | MIC [12] [µg/mL] | solubility [13] [µg/mL] |
| --- | --- | --- | --- | --- | --- | --- | --- | --- | --- | --- | --- | --- | --- |
| CCOC(=O)CN(C)[C@@H]1[C@H](O)[C@@H](O)[C@H](O[C@H]2c3cc(C)c(C(=O)N[C@H](C)C(=O)O)c(O)c3-c3c(cc4c(c3O)C(=O)c3cc(OC)cc(O)c3C4=O)[C@@H]2O)O[C@@H]1C [Ex. 6, N-(ethoxycarbonylmethyl) pradimicin B] | 1.6 (≈ 2.01 µM) | 1.6 (≈ 2.01 µM) | 0.8 (≈ 1.01 µM) | 1.6 (≈ 2.01 µM) | 1.6 (≈ 2.01 µM) | 6.3 (≈ 7.93 µM) | 6.3 (≈ 7.93 µM) | 6.3 (≈ 7.93 µM) | 3.2 (≈ 4.03 µM) | 12.5 (≈ 15.7 µM) | 6.3 (≈ 7.93 µM) | 3.2 (≈ 4.03 µM) | > 4000 |
| COc1cc(O)c2c(c1)C(=O)c1c(cc3c(c1O)-c1c(cc(C)c(C(=O)N[C@H](C)C(=O)O)c1O)[C@H](O[C@@H]1O[C@H](C)[C@H](N(C)C(=O)CN(C)C)[C@H](O)[C@H]1O)[C@H]3O)C2=O [Ex. 15, N-(N,N-dimethylglycyl) pradimicin B] | 6.4 (≈ 8.06 µM) | 3.2 (≈ 4.03 µM) | 3.2 (≈ 4.03 µM) | 3.2 (≈ 4.03 µM) | 1.6 (≈ 2.02 µM) | 2.5 (≈ 3.15 µM) | 6.3 (≈ 7.94 µM) | 12.5 (≈ 15.7 µM) | 3.2 (≈ 4.03 µM) | 12.5 (≈ 15.7 µM) | 6.3 (≈ 7.94 µM) | 6.3 (≈ 7.94 µM) | 2000 (≈ 2520 µM) |
| C=CCN(C)[C@@H]1[C@H](O[C@@H]2OC[C@@H](O)[C@H](O)[C@H]2O)[C@@H](O)[C@H](O[C@H]2c3cc(C)c(C(=O)N[C@H](C)C(=O)O)c(O)c3-c3c(cc4c(c3O)C(=O)c3cc(OC)cc(O)c3C4=O)[C@@H]2O)O[C@@H]1C [Ex. 22, N-(Allyl) pradimicin A] | 1.6 (≈ 1.82 µM) | – | – | 0.4 (≈ 0.454 µM) | 3.2 (≈ 3.63 µM) | – | > 50 | > 50 | 3.2 (≈ 3.63 µM) | > 50 | > 50 | > 50 | 5000 (≈ 5680 µM) |
